Experimental data published in article PMC8154258, “Multivalent Presentations of Glycomimetic Inhibitor of the Adhesion of Fungal Pathogen Candida albicans to Human Buccal Epithelial Cells” (Bioconjugate Chemistry, 2021).

Tested on: C. albicans biofilm formation
Experiment: Biofilm assay (crystal violet, 96-well plate)
Assay type: cell-based, Candida albicans
Description: C. albicans (MEN, serotype B, clinical isolate from a corneal infection) was maintained on sabouraud dextrose agar, and cultures were grow to the stationary phase ((1–2) × 10^8 cells/mL) overnight in YEPD broth (1% (w/v) yeast extract, 2% (w/v) bacteriological peptone, 2% (w/v) glucose) at 30 °C, and 200 rpm. Stationary phase yeast cells were harvested, washed with PBS, and resuspended at a density of 1 × 10^8 cells/mL in PBS.
C. albicans cells were washed twice with PBS and enumerated before being resuspended in RPMI to give a cell density of (2 × 10^7 cells/mL). Compounds were resuspended in PBS to give a concentration of 2 mg/mL. The compounds (250 μL) were mixed with RPMI (250 μL) in a 1:1 ratio to give a concentration of 1 mg/mL. PBS (250 μL) was mixed with RPMI (250 μL).
C. albicans cells (500 μL, 2 × 10^7 cells/mL) were incubated with compounds (1 mg/mL) in a 1:1 ratio to give a final cell density to concentration ratio of […]. The suspension was incubated for 3 h at rt and mixed by vortex every 20 min to prevent cells from falling out of solution. Cell suspension (100 μL) was added to wells of a 96-well flat bottom plate. The plate was incubated at 37 °C for 24 h. […] The plate was read at 550 nm in a 96-well plate reader. The percentage reduction in biofilm was calculated by dividing the absorbance value of the treated cells into that of the control.

## O=C[C@H](O)[C@@H](O)[C@@H](O)[C@H](O)CO [D-galactose]
Figure 4, relative to PBS control, compound 1 mg/mL mixed 1:1 with cells, 24 h at 37 °C, crystal violet, 550 nm, error: standard deviation
  % Change in biofilm formation: 114%
Biofilm growing conditions, positive control
  effect on biofilm formation (in words): promoted the formation of the biofilm
